Holding throughout (type): functional
Assay [1] relates to Streptococcus pneumoniae. As to the kind of experiment: Antibacterial activity against macrolide resistant Streptococcus pneumoniae ATCC 700676.
In assay [2] the test system is Enterococcus faecalis. As to the kind of experiment: Antibacterial activity against Enterococcus faecalis ATCC 51575.
In assay [3] the test system is Streptococcus pneumoniae. As to the kind of experiment: Antibacterial activity against macrolide resistant Streptococcus pneumoniae ATCC 700906.
Assay [4] deals with Staphylococcus aureus. As to the kind of experiment: Antibacterial activity against macrolide resistant Staphylococcus aureus ATCC 33591.
Assay [5] has as its system Staphylococcus aureus. As to the kind of experiment: Antibacterial activity against Staphylococcus aureus ATCC 29213.
The subject of assay [6] is Staphylococcus aureus. As to the kind of experiment: Antibacterial activity against Staphylococcus aureus ATCC 6538p.
Assay [7] relates to Streptococcus pneumoniae. As to the kind of experiment: Antibacterial activity against Streptococcus pneumoniae ATCC 49619.
Assay [8] concerns Streptococcus pneumoniae. As to the kind of experiment: Antibacterial activity against Streptococcus pneumoniae ATCC 700671.
The test system of assay [9] is Staphylococcus aureus. As to the kind of experiment: Antibacterial activity against macrolide resistant Staphylococcus aureus ATCC 141541.
Assay [10] deals with Staphylococcus aureus. As to the kind of experiment: Antibacterial activity against macrolide resistant Staphylococcus aureus ATCC BAA-39.
The subject of assay [11] is Staphylococcus aureus. As to the kind of experiment: Antibacterial activity against macrolide resistant Staphylococcus aureus ATCC BAA-44.
Assay [12] concerns Staphylococcus epidermidis. As to the kind of experiment: Antibacterial activity against Staphylococcus epidermidis ATCC 12228.
Assay [13] deals with Streptococcus pneumoniae. As to the kind of experiment: Antibacterial activity against Streptococcus pneumoniae ATCC 6301.
Assay [14] relates to Streptococcus pneumoniae. As to the kind of experiment: Antibacterial activity against macrolide resistant Streptococcus pneumoniae ATCC 700905.
Assay [15] relates to Streptococcus pneumoniae. As to the kind of experiment: Antibacterial activity against macrolide resistant Streptococcus pneumoniae ATCC 700677.

Here are results for six molecules from ChEMBL document CHEMBL1139006, “Synthesis and in vitro antibiotic activity of 16-membered 9-O-arylalkyloxime macrolides” (2006).

In brackets after ≈: the same amount, converted by molar mass.

By MIC is commonly meant the least concentration at which growth counts as inhibited. Lower therefore signals greater potency. For `CC[C@H]1OC(=O)C[C@@H](O)[C@H](C)[C@@H](O[C@@H]2O[C@H](C)[C@@H](O)[C@H](N(C)C)[C@H]2O)[C@@H](CC=O)C[C@@H](C)C(=N/OC/C=C\c2ccc3nccnc3c2)/C=C/C(C)=C/C1CO` (stereo not given in full), the MIC in assay [1] is 0.049 µg/mL (≈ 0.0627 µM); in [2] it was greater than 12.5 µg/mL; in assay [3], greater than 12.5 µg/mL; in [4], greater than 12.5 µg/mL; in [5], 0.39 µg/mL (≈ 0.499 µM); in assay [6], 0.2 µg/mL (≈ 0.256 µM). For the same molecule, the MIC in assay [7] is 0.025 µg/mL (≈ 0.032 µM); in assay [8], 0.049 µg/mL (≈ 0.0627 µM); in assay [9], 0.39 µg/mL (≈ 0.499 µM); in assay [10] it was greater than 12.5 µg/mL; in assay [11] it was greater than 12.5 µg/mL; in assay [12] it was 0.2 µg/mL (≈ 0.256 µM). Further, the MIC in [13] is 0.025 µg/mL (≈ 0.032 µM); in [14], 0.049 µg/mL (≈ 0.0627 µM); in assay [15] it was greater than 12.5 µg/mL.
Turning to `CC[C@H]1OC(=O)C[C@@H](O)[C@H](C)[C@@H](O[C@@H]2O[C@H](C)[C@@H](O)[C@H](N(C)C)[C@@H]2O)[C@@H](CCN2CC(C)CC(C)C2)C[C@@H](C)C(=N/OCCCc2ccc3ncccc3c2)/C=C/C(C)=C/C1CO` (stereo not given in full), the MIC in [1] was greater than 12.5 µg/mL; in assay [2] it was greater than 12.5 µg/mL; in assay [3], greater than 12.5 µg/mL; in assay [4], greater than 12.5 µg/mL; in assay [5], greater than 12.5 µg/mL; in assay [6], 12.5 µg/mL (≈ 14.2 µM). Moreover, the MIC in assay [7] is 6.25 µg/mL (≈ 7.11 µM); in assay [8], 6.25 µg/mL (≈ 7.11 µM); in assay [9] it was greater than 12.5 µg/mL; in assay [10] it was greater than 12.5 µg/mL; in assay [11] it was greater than 12.5 µg/mL; in assay [12] it was greater than 12.5 µg/mL. The MIC is 6.25 µg/mL (≈ 7.11 µM) in assay [13], greater than 12.5 µg/mL in assay [14] and greater than 12.5 µg/mL in [15].
`CC[C@H]1OC(=O)C[C@@H](O)[C@H](C)[C@@H](O[C@@H]2O[C@H](C)[C@@H](O)[C@H](N(C)C)[C@H]2O)[C@@H](CC=O)C[C@@H](C)C(=N/OCCOc2ccccc2)/C=C/C(C)=C/C1CO` (stereo not given in full): the minimum inhibitory concentration (MIC) was 0.025 µg/mL (≈ 0.0341 µM) in assay [1]; greater than 12.5 µg/mL in [2]; greater than 12.5 µg/mL in assay [3]; greater than 12.5 µg/mL in assay [4]; 0.2 µg/mL (≈ 0.273 µM) in [5]; 0.098 µg/mL (≈ 0.134 µM) in assay [6]. Moreover, the MIC in assay [7] was 0.01 µg/mL (≈ 0.0136 µM); in [8] it was 0.025 µg/mL (≈ 0.0341 µM); in assay [9], 0.39 µg/mL (≈ 0.532 µM); in assay [10] it was greater than 12.5 µg/mL; in assay [11], greater than 12.5 µg/mL; in [12], 0.2 µg/mL (≈ 0.273 µM). Also, the minimum inhibitory concentration (MIC) in [13] is 0.025 µg/mL (≈ 0.0341 µM); in [14], 0.025 µg/mL (≈ 0.0341 µM); in [15], 0.39 µg/mL (≈ 0.532 µM).
`CC[C@H]1OC(=O)C[C@@H](O)[C@H](C)[C@@H](O[C@@H]2O[C@H](C)[C@@H](O)[C@H](N(C)C)[C@H]2O)[C@@H](CC=O)C[C@@H](C)C(=N\OCc2ccccc2)/C=C/C(C)=C/C1CO` (stereo not given in full): the MIC in [1] was 0.2 µg/mL (≈ 0.285 µM); in [2], greater than 12.5 µg/mL; in assay [3], greater than 12.5 µg/mL; in assay [4] it was greater than 12.5 µg/mL; in assay [5] it was 1.56 µg/mL (≈ 2.22 µM); in [6], 0.78 µg/mL (≈ 1.11 µM). Further, the minimal inhibitory concentration (MIC) in assay [7] is 0.2 µg/mL (≈ 0.285 µM); in assay [8], 0.39 µg/mL (≈ 0.555 µM); in [9] it was 1.56 µg/mL (≈ 2.22 µM); in [10], greater than 12.5 µg/mL; in assay [11], greater than 12.5 µg/mL; in assay [12] it was 1.56 µg/mL (≈ 2.22 µM). Besides, the MIC in [13] is 0.2 µg/mL (≈ 0.285 µM); in assay [14] it was 0.39 µg/mL (≈ 0.555 µM); in assay [15], 3.12 µg/mL (≈ 4.44 µM).
For the molecule `CC[C@H]1OC(=O)C[C@@H](O)[C@H](C)[C@@H](O[C@@H]2O[C@H](C)[C@@H](O)[C@H](N(C)C)[C@H]2O)[C@@H](CC=O)C[C@@H](C)C(=N\OC/C=C/c2cnc3ccccc3c2)/C=C/C(C)=C/C1CO` (stereo not given in full), the MIC was 0.049 µg/mL (≈ 0.0628 µM) in [1]; greater than 12.5 µg/mL in assay [2]; greater than 12.5 µg/mL in [3]; greater than 12.5 µg/mL in [4]; 0.39 µg/mL (≈ 0.5 µM) in [5]; 0.098 µg/mL (≈ 0.126 µM) in assay [6]. The MIC in assay [7] was 0.025 µg/mL (≈ 0.0321 µM); in assay [8] it was 0.049 µg/mL (≈ 0.0628 µM); in assay [9], 0.39 µg/mL (≈ 0.5 µM); in assay [10] it was greater than 12.5 µg/mL; in assay [11], greater than 12.5 µg/mL; in assay [12] it was 0.049 µg/mL (≈ 0.0628 µM). The MIC is 0.025 µg/mL (≈ 0.0321 µM) in assay [13], 0.049 µg/mL (≈ 0.0628 µM) in assay [14] and greater than 12.5 µg/mL in [15].
For `CC[C@H]1OC(=O)C[C@@H](O)[C@H](C)[C@@H](O[C@@H]2O[C@H](C)[C@@H](O)[C@H](N(C)C)[C@H]2O)[C@@H](CC=O)C[C@@H](C)C(=N/OCC#Cc2cnc3ccccc3c2)/C=C/C(C)=C/C1CO` (stereo not given in full), the minimal inhibitory concentration (MIC) in assay [1] was 0.025 µg/mL (≈ 0.0321 µM); in assay [2], greater than 12.5 µg/mL; in assay [3], greater than 12.5 µg/mL; in assay [4], greater than 12.5 µg/mL; in assay [5], 0.39 µg/mL (≈ 0.501 µM); in [6] it was 0.098 µg/mL (≈ 0.126 µM). For the same molecule, the MIC in assay [7] was 0.025 µg/mL (≈ 0.0321 µM); in assay [8], 0.025 µg/mL (≈ 0.0321 µM); in assay [9] it was 0.39 µg/mL (≈ 0.501 µM); in assay [10] it was greater than 12.5 µg/mL; in [11], greater than 12.5 µg/mL; in [12], 0.098 µg/mL (≈ 0.126 µM). Moreover, the figures for the MIC in assay [13], in assay [14] and in [15] were 0.025 µg/mL (≈ 0.0321 µM), 0.049 µg/mL (≈ 0.063 µM) and greater than 12.5 µg/mL, respectively.
